# Patent US9200046B2, “Reporter system for high throughput screening of compounds and uses thereof” (priority 2011, dated 2015)
# Counter-ions that a name gives are not always drawn. Like-named read-outs stand apart in the source and are kept apart here.
# Tests used:
# [1] = tested on: Neh2-luciferase fusion protein in SH-SY5Y cells; format: cell-based, human; conditions: for lag-period of reporter activation: time-course of Neh2-luc activation
# Method: Cells were plated at the density of 25,000 cell per well using a WellMate multichannel dispenser from Matrix (Thermo Fisher Scientific) and grown overnight on DMEM/F12+GlutaMAX (100 μl per well). Then the inhibitor was added, and the plates were incubated for a fixed time interval; the medium was removed, cells lysed in 20 μL (out of which 4 μL were taken for protein measurement), then BrightGlo™ reagent (Promega) was added to the wells and luciferase activity measured on a luminometer Lmax11384 (Molecular Devices). The reporter activation was normalized to the background luminescence divided by protein concentration. Kinetics of reporter activation were measured by adding varied fixed concentrations of an inhibitor at different time points followed by simultaneous cell lysis, protein determination, and luciferase activity measurement in the whole 96-well plate; this assay format minimizes experimental error originating from the well-known instability of luciferase reagent.
# Nrf2-Keap1 complex = Nrf2-Keap1 complex (Homo sapiens, UniProt Q14145); assay: cell-based; format: cell-based; conditions: for activation at 16 µM / activation at 32 µM: 3 h; for activation at 16 µM: read-out: Activation 100 nL; for activation at 32 µM: read-out: Activation 200 nL
# [2] = Table 2, 100 nL compound, screen run at 16 and 32 μM, 3 hr
# [3] = Table 2, 200 nL compound, screen run at 16 and 32 μM, 3 hr
# [4] = Table 1A, 100 nL compound, screen run at 16 and 32 μM, 3 hr
# [5] = Table 1A, 200 nL compound, screen run at 16 and 32 μM, 3 hr
# Chain of Nrf2-Keap1 complex (Q14145 whole entry, one chain of several): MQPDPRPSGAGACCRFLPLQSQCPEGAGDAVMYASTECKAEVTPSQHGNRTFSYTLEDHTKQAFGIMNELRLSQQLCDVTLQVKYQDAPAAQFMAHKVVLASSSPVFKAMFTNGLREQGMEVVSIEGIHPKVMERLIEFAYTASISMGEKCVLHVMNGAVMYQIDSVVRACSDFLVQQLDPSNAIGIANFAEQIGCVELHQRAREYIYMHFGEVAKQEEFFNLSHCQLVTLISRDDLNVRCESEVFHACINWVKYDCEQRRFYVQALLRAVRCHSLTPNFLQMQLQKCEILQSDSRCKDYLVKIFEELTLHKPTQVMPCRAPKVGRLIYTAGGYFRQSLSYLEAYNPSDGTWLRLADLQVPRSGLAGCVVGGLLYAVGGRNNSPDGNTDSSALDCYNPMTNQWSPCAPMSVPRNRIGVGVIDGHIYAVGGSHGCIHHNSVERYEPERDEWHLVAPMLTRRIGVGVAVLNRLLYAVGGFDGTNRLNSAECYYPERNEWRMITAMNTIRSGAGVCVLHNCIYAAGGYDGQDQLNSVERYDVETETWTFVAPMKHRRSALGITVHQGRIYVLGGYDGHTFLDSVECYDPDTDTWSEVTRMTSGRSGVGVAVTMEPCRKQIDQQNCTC
Compound,activation at 16 µM (Nrf2-Keap1 complex),activation at 32 µM (Nrf2-Keap1 complex),100 nL (luminescence) (Nrf2-Keap1 complex; [2]),200 nL (luminescence) (Nrf2-Keap1 complex; [3]),other results
"Oc1ccccc1O [catechol, o-catechol]",–,–,–,–,lag-period of reporter activation [1]: 20 min
"Nc1ccccc1N [oPD, ortho-phenylene diamine]",–,–,–,–,lag-period of reporter activation [1]: 40 to 50 min
"COC1=C2C[C@@H](C)C[C@H](OC)[C@H](O)[C@@H](C)/C=C(\C)[C@H](OC(N)=O)[C@@H](OC)/C=C\C=C(/C)C(=O)NC(=CC1=O)C2=O [geldanamycin, reference compound]",–,–,–,–,activation effect ([1]; in the range of 0.5-1.5 μM): 2-3 fold
"Oc1nc2cc(Cl)c(Cl)cc2nc1O [2,3-DIHYDROXY-6,7-DICHLOROQUINOXALINE]",46%,109%,1056,1992,–
"COC(=O)Nc1nc2ccc(Sc3ccccc3)cc2[nH]1 [FENBENDAZOLE, reference compound]",224%,-24%,–,–,100 nL (luminescence) (Nrf2-Keap1 complex; [4]): 4908; 200 nL (luminescence) (Nrf2-Keap1 complex; [5]): 92
"CC(=O)N1CCN(c2ccc(OCC3CO[C@](Cn4ccnc4)(c4ccc(Cl)cc4Cl)O3)cc2)CC1 (some centres unmarked) [KETOCONAZOLE, reference compound]",–,–,–,–,100 nL (luminescence) (Nrf2-Keap1 complex): 1144; 200 nL (luminescence) (Nrf2-Keap1 complex): 1026; Activation 100 nL (Nrf2-Keap1 complex): 64%; Activation 200 nL (Nrf2-Keap1 complex): 33%
CC(C)c1cc2c(c(O)c1O)[C@@]1(C(=O)O)CCCC(C)(C)[C@@H]1CC2 [CARNOSICACID],372%,182%,3620,4604,–
COc1ccc2c(c1)OCC(=Cc1ccc(O)c(O)c1)C2=O,–,–,4822,2904,Activation 100 nL (Nrf2-Keap1 complex): 292%; Activation 200 nL (Nrf2-Keap1 complex): 169%
"O=C(CCBr)N1CCN(C(=O)CCBr)CC1 [PIPOBROMAN, reference compound]",79%,185%,–,–,100 nL (luminescence) (Nrf2-Keap1 complex): 1976; 200 nL (luminescence) (Nrf2-Keap1 complex): 3732
CCOP(=S)(OCC)Oc1nc(Cl)c(Cl)cc1Cl [CHLORPYRIFOS],90%,55%,1572,1704,–
"N.N.[Cl][Pt][Cl] [CISPLATIN, reference compound]",–,–,1100,1496,Activation 100 nL (Nrf2-Keap1 complex): 36%; Activation 200 nL (Nrf2-Keap1 complex): 90%
COc1cc(O)c2c(=O)c(O)c(-c3ccc(O)c(O)c3)oc2c1 [RHAMNETIN],138%,47%,2216,1536,–
O=C1C=C(O)C(=O)c2ccccc21 [LAWSONE],54%,34%,–,–,100 nL (luminescence) (Nrf2-Keap1 complex): 840; 200 nL (luminescence) (Nrf2-Keap1 complex): 1140
"CC(CCc1ccccc1)NC(C)C(O)c1ccc(O)cc1 (centres unmarked) [NYLIDRINHYDROCHLORIDE, reference compound]",42%,22%,–,–,–
"COc1ccc(/C=C/C(=O)c2ccc(O)cc2O)cc1 [2′,4′-DIHYDROXY-4-METHOXYCHALCONE]",246%,121%,4576,2720,–
COC(=O)c1cc(OC)c(=O)c2c(OC)c(OC)ccc2c1 [METHYL7-DESOXYPURPUROGALLIN-7-CARBOXYLATETRIMETHYLETHER],–,–,8248,1932,Activation 100 nL (Nrf2-Keap1 complex): 516%; Activation 200 nL (Nrf2-Keap1 complex): 105%
"COC(=O)C1=C(C)NC(C)=C(C(=O)OC)C1c1ccccc1[N+](=O)[O-] [NIFEDIPINE, reference compound]",35%,-10%,–,–,–
AVOCADYNOFURAN,–,–,582,1008,Activation 100 nL (Nrf2-Keap1 complex): 25%; Activation 200 nL (Nrf2-Keap1 complex): 29%
"COc1cc(O)c2c(=O)cc(C)oc2c1CC=C(C)C [HETEROPEUCENIN, METHYLETHER]",–,–,772,1020,Activation 100 nL (Nrf2-Keap1 complex): 27%; Activation 200 nL (Nrf2-Keap1 complex): 45%

Compound,activation at 16 µM (Nrf2-Keap1 complex),activation at 32 µM (Nrf2-Keap1 complex),100 nL (luminescence) (Nrf2-Keap1 complex; [2]),200 nL (luminescence) (Nrf2-Keap1 complex; [3]),other results
"O=c1c(-c2ccccc2)coc2cc(O)cc(O)c12 [5,7-DIHYDROXYISOFLAVONE]",45%,58%,964,1776,–
CC(=O)O[C@H]1C[C@@H](O)C(C)(C)[C@@H]2C[C@@H](OC(C)=O)[C@]3(C)[C@H](CC[C@@]4(C)[C@@H](c5ccoc5)OC(=O)[C@H]5O[C@@]534)[C@@]12C [3-DEACETYLKHIVORIN],–,–,1628,2102,Activation 100 nL (Nrf2-Keap1 complex): 94%; Activation 200 nL (Nrf2-Keap1 complex): 72%
CCC(C)C(=O)OC1[C@@H]2CC3=C4CC(=O)O[C@@H](c5ccoc5)[C@]4(C)CCC3[C@@](C)(C2=O)[C@@H](CC(=O)OC)C1(C)C (some centres unmarked) [KHAYASIN],90%,105%,1736,1928,–
"CN(C)c1ccc(O)c2c1C[C@H]1C[C@H]3[C@H](N(C)C)C(O)=C(C(N)=O)C(=O)[C@@]3(O)C(O)=C1C2=O [MINOCYCLINEHYDROCHLORIDE, reference compound]",326%,169%,–,–,Neh2-luc reporter activation (Nrf2-Keap1 complex): 200%
C=C(C)[C@@H]1CC=C(CO)CC1 [PERILLYLALCOHOL],31%,27%,–,–,100 nL (luminescence) (Nrf2-Keap1 complex): 824; 200 nL (luminescence) (Nrf2-Keap1 complex): 736
"O=C1CN(/N=C/c2ccc([N+](=O)[O-])o2)C(=O)N1 [NITROFURANTOIN, reference compound]",30%,47%,–,–,–
CC(=O)OC1CCC23CC1(C)CCC2C(C)(C)CC3OC(C)=O (centres unmarked) [CLOVANEDIOLDIACETATE],27%,40%,728,1356,–
"COC(=O)Nc1nc2cc(C(=O)c3cccs3)ccc2[nH]1 [NOCODAZOLE, reference compound]",28%,48%,–,–,100 nL (luminescence) (Nrf2-Keap1 complex; [4]): 940; 200 nL (luminescence) (Nrf2-Keap1 complex; [5]): 980
Cc1cc(O)ccc1Cl [CHLOROCRESOL],25%,-5%,–,–,–
"O=C(O)c1cc(O)c2c(c1)[C@@H]([C@H]1c3cc(C(=O)O)cc(O)c3C(=O)c3c(O[C@H]4O[C@H](CO)[C@@H](O)[C@H](O)[C@H]4O)cccc31)c1cccc(O[C@H]3O[C@H](CO)[C@@H](O)[C@H](O)[C@H]3O)c1C2=O [SENNOSIDEA, reference compound]",141%,-24%,–,–,100 nL (luminescence) (Nrf2-Keap1 complex): 3204; 200 nL (luminescence) (Nrf2-Keap1 complex): 4
"C[C@@H]1C(=O)O[C@H]2[C@H]1CC[C@@]1(C)C=CC(=O)[C@@]3(C)O[C@@]213 [EPOXY(4,5alpha)-4,5-DIHYDROSANTONIN]",–,–,3828,3164,Activation 100 nL (Nrf2-Keap1 complex): 227%; Activation 200 nL (Nrf2-Keap1 complex): 186%
O=C(NC(=O)c1c(F)cccc1F)Nc1cc(Cl)c(OC(F)(F)C(F)C(F)(F)F)cc1Cl (centres unmarked) [LUFENURON],32%,29%,–,–,100 nL (luminescence) (Nrf2-Keap1 complex): 644; 200 nL (luminescence) (Nrf2-Keap1 complex): 1022
COc1cc(C/C=C/c2ccccc2)c(OC)cc1O [VIOLASTYRENE],133%,50%,2388,1096,–
1(2)alpha-EPDXYDEOXYDIHYDROGEDUNIN,–,–,752,1028,Activation 100 nL (Nrf2-Keap1 complex): 29%; Activation 200 nL (Nrf2-Keap1 complex): 25%
O=C(CC(=O)c1ccccc1)c1ccccc1 [DIBENZOYLMETHANE],66%,-8%,–,–,100 nL (luminescence) (Nrf2-Keap1 complex): 1368; 200 nL (luminescence) (Nrf2-Keap1 complex): 204
O=c1cc(-c2cc(O)c(O)c(O)c2)oc2cc(O)cc(O)c12 [HIERACIN],–,–,2502,1832,Activation 100 nL (Nrf2-Keap1 complex): 160%; Activation 200 nL (Nrf2-Keap1 complex): 60%
"S=c1ccss1 [3H-1,2-DITHIOLE-3-THIONE]",295%,127%,5416,2832,–
CC(C)C1=CC2=CC[C@@H]3[C@](C)(CCC[C@@]3(C)C(=O)O)[C@H]2CC1 [ABIETICACID],67%,57%,–,–,100 nL (luminescence) (Nrf2-Keap1 complex): 1256; 200 nL (luminescence) (Nrf2-Keap1 complex): 1748
COc1cc([C@@H]2c3cc4c(cc3[C@H](OC(C)=O)[C@H]3COC(=O)[C@H]23)OCO4)cc(OC)c1OC [PODOPHYLLOTOXINACETATE],–,–,900,668,Activation 100 nL (Nrf2-Keap1 complex): 40%; Activation 200 nL (Nrf2-Keap1 complex): 10%
